Values belong to the molecule of their own block, whether it stands above or below them.
Assay: solvent given as SMILES

fluorescence lifetime (in CCOC(C)=O): 3.6 ns
fluorescence lifetime (in CS(C)=O): 4.3 ns
Compound: c1ccc(Nc2nc(Nc3ccccc3)nc(Nc3ccc4c5cccc6cccc(c7cccc3c74)c65)n2)cc1

fluorescence lifetime (in ClCCl): 1.74 ns
Compound: CC(C)(C)NC(=O)c1cccc2ccc3c4ccccc4c4ccccc4c3c12

fluorescence lifetime (in C1COCCO1): 1.22 ns
Compound: c1ccc(-c2nc(-c3nc(-c4ccccc4)c(-c4ccccc4)o3)oc2-c2ccccc2)cc1

fluorescence lifetime (in CC#N): 2 ns
fluorescence lifetime (in CCOC(C)=O): 1.7 ns
Compound: [C-]#[N+]c1ccc(-c2ccc(N)cc2)cc1

fluorescence lifetime (in C1COCCO1): 0.95 ns
Compound: c1ccc(-c2nc(-c3ccc(-c4ccc(-c5nc(-c6ccccc6)c(-c6ccccc6)o5)cc4)cc3)oc2-c2ccccc2)cc1

Compound: O=Cc1ccc2ccc3cccc4ccc1c2c34
fluorescence lifetime (in C1CCOC1): 127 ns
fluorescence lifetime (in CC#N): 8.76 ns
fluorescence lifetime (in CCCCCC): 7.43 ns
fluorescence lifetime (in CCO): 6.44 ns
fluorescence lifetime (in CN(C)C=O): 64.8 ns
fluorescence lifetime (in CO): 0.953 ns
fluorescence lifetime (in Cc1ccccc1): 15.3 ns
fluorescence lifetime (in ClCCl): 3.45 ns

fluorescence lifetime (in ClCCl): 2.15 ns
Compound: COC(=O)c1cc(=O)n(C)c2cc(-c3ccc4c(c3)OCCO4)sc12

fluorescence lifetime (in CCOC(C)=O): 3.5 ns
fluorescence lifetime (in CS(C)=O): 4 ns
Compound: COc1nc(Nc2ccc3c4cccc5cccc(c6cccc2c63)c54)nc(OC)n1

fluorescence lifetime (in CC1CCCCC1): 3.6 ns
fluorescence lifetime (in CC#N): 4.2 ns
Compound: C(=C\c1c2ccccc2cc2ccccc12)/c1ccccc1

fluorescence lifetime (in C1CCCCC1): 3.99 ns
fluorescence lifetime (in CCOC(C)=O): 4.1 ns
fluorescence lifetime (in CO): 4.02 ns
Compound: F[B-]1(F)n2c(cc3c4ccccc4oc32)C(c2ccccc2)=C2C=c3c(oc4ccccc34)=[N+]21

fluorescence lifetime (in CC#N): 2.1 ns
fluorescence lifetime (in CC(C)O): 8.52 ns
fluorescence lifetime (in CCCCO): 7.27 ns
fluorescence lifetime (in CCCO): 6.93 ns
fluorescence lifetime (in CCO): 5.98 ns
fluorescence lifetime (in CO): 3.82 ns
Compound: COc1cccc2c1C(=O)c1ccccc1-2

fluorescence lifetime (in CC#N): 3.28 ns
Compound: C=Cc1cc2ccc(OC(=O)c3ccccc3)cc2oc1=O

fluorescence lifetime (in C1CCOC1): 2.33 ns
Compound: CCN(CC)c1ccc(-c2nc3c(nc2-c2ccc(B(c4c(C)cc(C)cc4C)c4c(C)cc(C)cc4C)cc2)c2ccccc2n3C)cc1

Compound: CCN(CC)c1ccc2c(C(F)(F)F)cc(=O)oc2c1
fluorescence lifetime (in C1CCCCC1): 4.1 ns
fluorescence lifetime (in CC#N): 0.6 ns
fluorescence lifetime (in CCO): 0.85 ns
fluorescence lifetime (in CCOC(C)=O): 4.6 ns
fluorescence lifetime (in OCC(O)CO): 2.7 ns

fluorescence lifetime (in C1CCOC1): 2.1 ns
Compound: CCOC(=O)c1csc2[n+]1[B-](F)(F)OC(c1ccc(N(C)C)cc1)=N2

Compound: CCn1c2ccccc2c2c3nsnc3c3c4ccccc4n(CC)c3c21
fluorescence lifetime (in CN(C)C=O): 1.07 ns
fluorescence lifetime (in Cc1ccccc1): 0.97 ns
fluorescence lifetime (in ClCCl): 1 ns

fluorescence lifetime (in C1CCCCC1): 8.01 ns
Compound: c1cc2c3c(c1)OCCCCCCCCOc1cccc(c1-c1c4ccccc4c-3c3ccccc13)OCCCCCCCCO2

fluorescence lifetime (in CC#N): 5.25 ns
fluorescence lifetime (in CC(C)O): 4.36 ns
fluorescence lifetime (in CCCCCCCCO): 4.17 ns
fluorescence lifetime (in CCCCCCO): 4.27 ns
fluorescence lifetime (in CCCCO): 4.3 ns
fluorescence lifetime (in CCCO): 4.3 ns
fluorescence lifetime (in CCO): 4.74 ns
fluorescence lifetime (in CN(C)C=O): 4.78 ns
fluorescence lifetime (in CO): 4.59 ns
fluorescence lifetime (in O): 4.91 ns
fluorescence lifetime (in [2H]O[2H]): 4.8 ns
Compound: O=C([O-])c1ccccc1C1=c2cc3c4c(c2Oc2c1cc1c5c2CCCN5CCC1)CCC[N+]=4CCC3

fluorescence lifetime (in C1CCCCC1): 1.3 ns
fluorescence lifetime (in CC#N): 0.6 ns
Compound: COc1ccc2c(c1)C(=O)c1cc(OC)cc(OC)c1-2

fluorescence lifetime (in C1CCOC1): 2.1 ns
Compound: C[Si](C)(C)C#CC1=CC2=c3cc(C#C[Si](C)(C)C)c4nc(C(F)(F)C(F)(F)C(F)(F)F)nc5c(C#C[Si](C)(C)C)cc(c3c54)C3=CC(C#C[Si](C)(C)C)=C4N=C(C(F)(F)C(F)(F)C(F)(F)F)N=C1C4C32 (stereo not given)

fluorescence lifetime (in C1CCCCC1): 4.7 ns
fluorescence lifetime (in CCOC(C)=O): 4.1 ns
fluorescence lifetime (in CO): 5.1 ns
Compound: c1ccc2cc(-n3cnc4ccccc43)ccc2c1

Compound: N#Cc1c(-n2c3ccccc3c3ccccc32)cccc1-n1c2ccccc2c2ccccc21
fluorescence lifetime (in Cc1ccccc1): 2.6 ns
fluorescence lifetime (in O=P(c1ccccc1)(c1ccccc1)c1ccccc1Oc1ccccc1P(=O)(c1ccccc1)c1ccccc1): 4 ns

— the Deep4Chem optical property database
